Data: ChEMBL document CHEMBL4765394, “From irreversible to reversible covalent inhibitors: Harnessing the andrographolide scaffold for anti-inflammatory action” (Eur J Med Chem, 2020)
Calls of active or inactive are those of the source. The calls are words filed in the database; no cut-off is given here.

Legend:
[1] = Aqueous stability of compound; format: physicochemical; conditions: buffer
RAW264.7 [2] = assay: Antiinflammatory activity in mouse RAW264.7 cells assessed as inhibition of LPS-induced IL6 release at 5 to 10 uM preincubated for 1 hr followed by LPS stimulation and measured after 24 hrs by ELISA; format: functional, cell-based; conditions: dose 5-10 µM, time 25.0 hrs
RAW264.7 [3] = assay: Cytotoxicity against mouse RAW264.7 cells assessed as reduction cell viability at 5 to 50 uM measured after 24 hrs by Celltiter-glo assay; format: cell-based; conditions: raw264.7, 24 h, dose 5-50 µM
RAW264.7 [4] = assay: Antiinflammatory activity in mouse RAW264.7 cells assessed as inhibition of LPS-induced TNFalpha release at 5 to 10 uM preincubated for 1 hr followed by LPS stimulation and measured after 4 hrs by ELISA; format: functional, cell-based; conditions: dose 5-10 µM, time 5.0 hrs
RAW-Blue [5] = assay: Inhibition of LPS-induced NF-kappaB activity in mouse RAW-Blue cells assessed as reduction in SEAP reporter activity at 5 to 20 uM preincubated for 1 hr followed by LPS stimulation and measured after 8 hrs by SEAP reporter gene assay; format: cell-based; conditions: dose 5-20 µM, time 9.0 hrs
RAW-Blue [6] = assay: Inhibition of LPS-induced NF-kappaB activity in mouse RAW-Blue cells assessed as reduction in SEAP reporter activity at 5 to 20 uM preincubated for 1 hr followed by LPS stimulation and measured after 24 hrs by SEAP reporter gene assay; format: cell-based; conditions: dose 5-20 µM, time 25.0 hrs
RAW-Blue [7] = assay: Activation of NF-kappaB activity in mouse RAW-Blue cells assessed as increase in SEAP reporter activity at 5 to 20 uM measured after 24 hrs by SEAP reporter gene assay; format: cell-based; conditions: dose 5-20 µM
RAW-Blue [8] = assay: Activation of NF-kappaB activity in mouse RAW-Blue cells assessed as increase in SEAP reporter activity at 30 uM measured after 24 hrs in presence of p38 inhibitor SB203580 by SEAP reporter gene assay; format: cell-based
[9] = GSH reactivity in PBS assessed as isomerization measured up to 24 hrs by HPLC-MS analysis; format: ADME; conditions: buffer
[10] = GSH reactivity in PBS assessed as GSH adduct formation measured up to 8 hrs by HPLC-MS analysis; format: ADME; conditions: buffer
[11] = GSH reactivity in PBS assessed as GSH adduct formation by measuring half life by HPLC-MS analysis; format: ADME
[12] = target: RAC-alpha serine/threonine-protein kinase (Mus musculus) (UniProt P31750); assay: Inhibition of LPS-induced AKT activation in mouse RAW264.7 cells assessed as reduction in AKT phosphorylation measured after 4 hrs by Western blot analysis; format: cell-based
Sequence of RAC-alpha serine/threonine-protein kinase (Mus musculus) (P31750 whole entry): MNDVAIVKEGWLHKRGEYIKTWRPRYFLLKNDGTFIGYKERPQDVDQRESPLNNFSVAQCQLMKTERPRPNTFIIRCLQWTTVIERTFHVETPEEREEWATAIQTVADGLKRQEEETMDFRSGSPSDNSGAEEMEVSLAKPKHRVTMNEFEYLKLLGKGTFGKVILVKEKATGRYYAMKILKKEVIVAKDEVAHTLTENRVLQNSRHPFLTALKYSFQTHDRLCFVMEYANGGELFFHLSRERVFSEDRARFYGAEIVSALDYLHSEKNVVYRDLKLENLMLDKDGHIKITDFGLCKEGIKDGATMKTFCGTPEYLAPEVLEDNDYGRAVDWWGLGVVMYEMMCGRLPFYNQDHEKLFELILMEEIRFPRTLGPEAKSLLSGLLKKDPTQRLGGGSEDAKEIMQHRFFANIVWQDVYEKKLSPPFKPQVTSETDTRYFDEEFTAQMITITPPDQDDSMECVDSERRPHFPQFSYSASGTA

[13] = Effect on total AKT expression in LPS-induced mouse RAW264.7 cells at 5 to 20 uM measured after 4 hrs by Western blot analysis; conditions: raw264.7, 4 h, dose 5-20 µM
[14] = target: T1, Mitogen-activated protein kinase 1 and 3 (ERK2 and ERK1) (Mus musculus) (UniProt P63085+Q63844); assay: Inhibition of LPS-induced ERK1/2 activation in mouse RAW264.7 cells assessed as reduction in ERK1/2 phosphorylation at 20 uM measured after 4 hrs by Western blot analysis; format: cell-based
T1 sequence (P63085 whole entry, looked up): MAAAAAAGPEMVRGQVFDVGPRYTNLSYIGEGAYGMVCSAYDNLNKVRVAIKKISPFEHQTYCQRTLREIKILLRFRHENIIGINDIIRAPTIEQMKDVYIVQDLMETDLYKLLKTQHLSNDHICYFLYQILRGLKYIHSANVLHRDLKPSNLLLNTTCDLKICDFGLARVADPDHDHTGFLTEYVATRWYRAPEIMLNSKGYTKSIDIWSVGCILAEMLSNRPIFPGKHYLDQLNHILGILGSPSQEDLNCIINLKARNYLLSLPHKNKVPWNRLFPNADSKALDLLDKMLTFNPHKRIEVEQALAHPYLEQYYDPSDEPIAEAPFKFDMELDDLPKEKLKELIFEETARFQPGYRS
T1 sequence (Q63844 whole entry, looked up): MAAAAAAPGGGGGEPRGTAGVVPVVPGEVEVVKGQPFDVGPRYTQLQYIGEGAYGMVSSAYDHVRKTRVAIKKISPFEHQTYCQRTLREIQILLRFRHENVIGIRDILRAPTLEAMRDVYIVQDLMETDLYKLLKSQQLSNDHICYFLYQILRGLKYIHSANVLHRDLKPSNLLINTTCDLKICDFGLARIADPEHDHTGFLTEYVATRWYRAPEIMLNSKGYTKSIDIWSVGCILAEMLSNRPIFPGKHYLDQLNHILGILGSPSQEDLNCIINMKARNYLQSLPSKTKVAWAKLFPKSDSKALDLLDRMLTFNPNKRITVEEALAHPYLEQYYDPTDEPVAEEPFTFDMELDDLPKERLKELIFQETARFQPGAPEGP

[15] = target: T2, Nuclear factor NF-kappa-B p105 subunit (Homo sapiens) (UniProt P19838); assay: Inhibition of DNA binding activity of human NF-kappaB p50 measured after 1 hr by ELISA
T2 sequence (whole entry): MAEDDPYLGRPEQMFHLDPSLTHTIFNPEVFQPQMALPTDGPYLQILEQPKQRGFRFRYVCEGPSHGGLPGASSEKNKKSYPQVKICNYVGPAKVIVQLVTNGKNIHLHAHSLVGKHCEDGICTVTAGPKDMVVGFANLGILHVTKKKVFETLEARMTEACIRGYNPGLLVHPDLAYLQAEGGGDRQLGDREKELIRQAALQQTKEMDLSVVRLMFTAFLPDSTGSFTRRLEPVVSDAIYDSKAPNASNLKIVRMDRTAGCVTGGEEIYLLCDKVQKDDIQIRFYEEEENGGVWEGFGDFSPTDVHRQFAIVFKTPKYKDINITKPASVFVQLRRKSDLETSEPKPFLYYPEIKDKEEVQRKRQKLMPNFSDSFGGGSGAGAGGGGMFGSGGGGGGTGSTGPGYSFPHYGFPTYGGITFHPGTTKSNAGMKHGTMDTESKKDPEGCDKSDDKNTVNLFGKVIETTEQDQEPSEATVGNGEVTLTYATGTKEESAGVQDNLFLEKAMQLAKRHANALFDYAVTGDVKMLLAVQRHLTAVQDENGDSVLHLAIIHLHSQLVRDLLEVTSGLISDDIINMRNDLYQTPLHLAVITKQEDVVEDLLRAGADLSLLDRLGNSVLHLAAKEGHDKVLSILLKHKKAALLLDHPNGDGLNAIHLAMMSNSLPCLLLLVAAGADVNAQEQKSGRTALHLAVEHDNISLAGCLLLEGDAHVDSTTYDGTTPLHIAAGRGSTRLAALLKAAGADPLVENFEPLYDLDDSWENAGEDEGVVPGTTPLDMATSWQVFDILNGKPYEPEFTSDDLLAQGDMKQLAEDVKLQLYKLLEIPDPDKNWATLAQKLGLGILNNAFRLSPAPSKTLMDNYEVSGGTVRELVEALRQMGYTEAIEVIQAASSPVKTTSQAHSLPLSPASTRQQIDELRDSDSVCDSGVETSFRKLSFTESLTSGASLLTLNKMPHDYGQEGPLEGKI

[16] = target: T2, Nuclear factor NF-kappa-B p105 subunit (Homo sapiens); assay: Binding affinity to human NF-kappaB p50 assessed as compound-adduct formation by MALDI-TOF analysis
[17] = Cytotoxicity against human L02 cells assessed as reduction in cell viability measured after 24 hrs by Celltiter-glo assay; format: cell-based
[18] = Cytotoxicity against HEK293 cells assessed as reduction in cell viability measured after 24 hrs by Celltiter-glo assay; format: cell-based; conditions: human
Mus musculus [19] = assay: Antiinflammatory activity in LPS-induced BALB/c mouse model of acute lung injury assessed as reduction in total cell count at 1 mg/kg, ip administered twice daily for 4 days starting 1 hr post LPS challenge by differential staining based flow cytometry relative to control; format: functional; set-up: scale not given: the % may be the effect or the level left; conditions: time 4 day
Mus musculus [20] = assay: Antiinflammatory activity in LPS-induced BALB/c mouse model of acute lung injury assessed as reduction in neutrophil cell count at 1 mg/kg, ip administered twice daily for 4 days starting 1 hr post LPS challenge by differential staining based flow cytometry relative to control; format: functional; set-up: scale not given: the % may be the effect or the level left; conditions: time 4 day
Mus musculus [21] = assay: Antiinflammatory activity in ip dosed LPS-induced BALB/c mouse model of acute lung injury assessed as reduction in total cell count administered twice daily for 4 days starting 1 hr post LPS challenge by differential staining based flow cytometry; format: functional, organism-based; conditions: time 4.0 day
Mus musculus [22] = assay: Antiinflammatory activity in ip dosed LPS-induced BALB/c mouse model of acute lung injury assessed as reduction in neutrophil cell count administered twice daily for 4 days starting 1 hr post LPS challenge by differential staining based flow cytometry; format: functional, organism-based; conditions: time 4.0 day
RAW264.7 [23] = assay: Activation of JNK phosphorylation in mouse RAW264.7 cells at 50 uM measured after 4 hrs by Western blot analysis; format: cell-based
RAW264.7 [24] = assay: Activation of JNK phosphorylation in BSO-treated mouse RAW264.7 cells at 50 uM measured after 4 hrs by Western blot analysis
[25] = target: T1, Mitogen-activated protein kinase 1 and 3 (ERK2 and ERK1) (Mus musculus); assay: Inhibition of LPS-induced ERK1/2 activation in BSO-treated mouse RAW264.7 cells assessed as reduction in ERK1/2 phosphorylation at 10 uM preincubated for 1 hr followed by LPS-stimulation measured after 4 hrs by Western blot analysis; conditions: time 5.0 hrs
[26] = target: RAC-alpha serine/threonine-protein kinase (Mus musculus) (UniProt P31750); assay: Inhibition of LPS-induced AKT activation in BSO-treated mouse RAW264.7 cells assessed as reduction in AKT phosphorylation at 10 uM preincubated for 1 hr followed by LPS-stimulation measured after 4 hrs by Western blot analysis; conditions: time 5.0 hrs
RAW264.7 [27] = assay: Antiinflammatory activity in 2 hrs NAC-pretreated mouse RAW264.7 cells assessed as inhibition of LPS-induced TNFalpha release at 10 uM preincubated for 1 hr followed by LPS stimulation and measured after 4 hrs by ELISA relative to control; format: functional; conditions: time 5 hrs
RAW264.7 [28] = assay: Antiinflammatory activity in 4 hrs NAC-pretreated mouse RAW264.7 cells assessed as inhibition of LPS-induced TNFalpha release at 10 uM preincubated for 1 hr followed by LPS stimulation and measured after 4 hrs by ELISA relative to control; format: functional; conditions: time 5 hrs
RAW264.7 [29] = assay: Antiinflammatory activity in 24 hrs NAC-pretreated mouse RAW264.7 cells assessed as inhibition of LPS-induced TNFalpha release at 10 uM preincubated for 1 hr followed by LPS stimulation and measured after 4 hrs by ELISA relative to control; format: functional; conditions: time 5 hrs

Stabilty [1]: Stable
Drug metabolism [9]: Metabolite_Notdetected
K [10]: 2.11e-05 M⁻¹ s⁻¹
t1/2 [11]: 6.47 h
inhibition [12]: Dose-dependent effect
inhibition [14]: Active
inhibition [15]: Dose-dependent effect
Activity [16]: Active
inhibition [25]: Active
inhibition [26]: Active
Compound: C=C1CC[C@@H]2[C@](C)(CO)[C@H](O)CC[C@@]2(C)[C@@H]1C/C=C/C(C)=O
inhibition (RAW264.7 [2]): Active
Activity (RAW264.7 [3]): Toxic
inhibition (RAW264.7 [4]): Active
inhibition (RAW-Blue [5]): Active
inhibition (RAW-Blue [6]): Active
Activity (RAW-Blue [7]): inactive
Activity (RAW-Blue [8]): inactive
Activity [13]: Non-Toxic
CC50 at 24 h [17]: 30.1 µM
CC50 at 24 h [18]: 67 µM
Activity (Mus musculus [19]): >30%
Activity (Mus musculus [20]): >30%
Activity (Mus musculus [21]): Dose-dependent effect
Activity (Mus musculus [22]): Dose-dependent effect
Activity (RAW264.7 [23]): inactive
Activity (RAW264.7 [24]): inactive
inhibition at 10 µM (RAW264.7 [27]): 12%
inhibition at 10 µM (RAW264.7 [28]): 23%
inhibition at 10 µM (RAW264.7 [29]): 51%
